Laboratory results as given in patent EP0106571A2, “Prophylactic substance or composition” (priority 1982, dated 1984).
Like-named read-outs stand apart in the source and are kept apart here.

Legend:
[1] = tested on: MG63 Human osteogenic sarcoma cells; experiment: Colony formation after 7 days with two additions of fatty acid; format: cell-based
Procedure: MG63 Human osteogenic sarcoma cells were seeded in culture flasks as described in Examples 4 and 5. 2,000 cells were seeded in each flask. Duplicate sets of flasks were used for each of the fatty acids tested. The following fatty acids dissolved in standard growth medium were added to the cells in culture, after allowing 2 days for cell attachment, and again after a further 3 days. Each culture therefore had only 2 additions of the relevant fatty acid. The cells were stained and examined at the end of 7 days in culture: • 1. Culture medium only - control. • 2. 5, 10, 20, 40, 60, 80 and 100µg oleic acid respectively /ml culture medium. […] 5; 10, 20, 40, 60, 80 and 100µg LA respectively /ml culture medium. • 4. 5, 10, 20, 40, 60, 80 and […] ALA respectively ./ml culture. medium. • 5. 5, 10, 20, 40, 60, 80 and 100µg/ml AA respectively /ml culture medium. • 6. 5, 10, 20, 40, 60, 80 and 100µg/ml EPA respectively /ml culture medium. • ..7.

MDBK bovine kidney cells = details: any of the GLA doses (0.5 to 10 µg/ml), 7 days
Procedure: (§1) Thus each culture set comprised 13 separate experiments. […] Each set of dosages was duplicated for both cell lines. Thus, a total of 280 separate cultures were used for these determinations. For statistical treatment an average value of each duplicate was used as n = I. • (i) Growth Curves Protocol: The cells were seeded in a standard growth medium (McCoys 5A medium) from stock cultures into Greiner 50 ml plastic flasks at subconfluent densities ranging from I x 10^5 cells/flask.
These cultures flasks were incubated in a humidified atmosphere of 5% C02, 95% air at 37°C for 7 days. After this period cell counts and viabilities were determined, the latter by trypan blue dye exclusion.
Data Reduction and Statistical Analyses: Using the values of cell counts obtained as described above, the difference of each cell count from its control was expressed as a perecentage of the control. As the growth curves were repeated several times for each dose for both normal and cancer cells, the mean value and standard error was determined for each dose. […] For the purpose of presentation these percentage differences are expressed as the percentage reduction of growth rate (-GR%).

[2] = tested on: Human osteogenic sarcoma cells; experiment: Colony growth over three weeks with fatty acids or prostaglandins, Amidoschwarz stain; format: cell-based
Procedure: Human osteogenic sarcoma cells were seeded into 50 ml Greiner plastic flasks and maintained exactly as explained in Example 4.
At the end of three weeks the culture flasks were stained with a 0.1% Amidoschwarz stain solution.

BL6 mouse melanoma cells [3] = experiment: cells
Procedure: as §1
Plates were incubated in a 5% C02 humidified atmosphere at 37 °C. For the final 24 hours, 0.4 µCl of [6^-3H]-thymidine or I µCl of L-[methyl -^3H] -methionine (New England Nuclear, Boston, Mass) was added to each incubation mixture on the micrplate. The cells were then collected using a Skatron automatic harvester onto glass fibre reinforced resin filters. The filters were dried and dissolved in 10 ml Picofluor ^TM30 (Packard). The [6-^3H] -thymidine incorporation into DNA and the L-[methyl-^3H] -methionine incorporation into proteins was counted on a Packard Tri-Carb scintillation counter.

human hepatoma cells = experiment: cells; details: for inhibition at 20 µg/mL: Homo sapiens, read-out: Reduction in growth rate (%), daily GLA 20 µg/ml; for GLA supplemented cell number (x10^4) Mean: daily GLA 20 µg/ml, n = 4
Procedure: To control flasks only 20µl of the sodium carbonate vehicle was added.
Cells: Cells of the human primary carcinoma of the liver line were provided by Dr. J.J. Alexander of the Division of Virology, Department of Microbiology, Medical University of South Africa. These cells were maintained in Grenier plastic flasks in McCoys 5A medium as described in Example I.
The cells were seeded in the standard growth medium from stock cultures into Greiner 50 ml plastic flasks at subconfluent densities ranging from 2 x 10^5 to 3 x 10^5 cells per flask. […] These culture flasks were included in a humidified atmosphere of 5% CO2, 95% air at 37°. At the end of each experiment the detached, dead cells were discarded with the culture medium. The living attached cells were trypsinised and then counted using a Coulter counter. Cell viability was checked by trypan blue dye exclusion. In addition, the culture flasks were viewed and photographed daily under a Nikon diaphot inverted phase microscope.
The cells were counted after 4 days in culture.

[4] = tested on: MG63 osteoid-sarcoma cells; details: for Cell count (x 10^6) + GLA Mean: MG63, seeding density 0,3, daily GLA, n = 4
Excerpt: (§2) Cells: MG63. osteoid-sarcoma cells were obtained from Flow Laboratories. Oesophageal carcinoma cells were obtained from Prof. J. Alexander of the Department of Microbiology at Medunsa, South Africa. Control benign bovine kidney cells (MDBK) were from the same stock that were used in the previous examples.

[5] = tested on: Oesophageal carcinoma cells; details: 10 µg GLA per day for six days; for Cell count (x 10^6) + GLA Mean: Oesophageal Carcinoma, seeding density 0,14, n = 4
Excerpt: as §2

[6] = tested on: benign bovine kidney cells (MDBK); details: for Cell count (x 10^6) + GLA Mean: MDBK, seeding density 0,3, daily GLA, n = 4
Excerpt: as §2

BL6 mouse melanoma cells [7] = details: GLA 20 µg/ml daily for two weeks
Procedure: Only 20µI of the sodium carbonate vehicle was added to control flasks.
Malignant BL6 mouse melanoma cells were maintained in Griener plastic flasks (Labortechnik) containing 10% fetal calf serum (Flor Laboratories) and antibiotics. Stock cultures were refed twice weekly and were subcultured at. weekly intervals or sooner if required. The BL6 mouse melanoma cells were supplied by Dr. C. Albrecht, Department of Pharmacology, University of Stellenbosch, South Africa.
Duplicates were set up for the three densities.
The culture flasks were incubated in a humidified atmosphere of 5% C02, 95% air at 37°C. At the end of the two weeks period the culture flasks were stained using a 0.1% Amidoschwarz stain solution.

## CCCCC/C=C\C/C=C\C/C=C\CCCCC(=O)O [GLA, gamma linolenic acid]
[1]; dose series 5 to 100 µg/ml, 2 additions
  suppressive action on proliferation and colony formation: almost equal, progressive, suppressive action
[1]; levels of supplementation above 40 µg/ml culture medium, 2 additions
  cell growth and colony formation: completely suppressed
[1]; supplementation levels between 40 and 100 µg/ml
  cells or colonies found on microscopic examination: Not a single cell or colony of cells could be found
MDBK bovine kidney cells
  response of growth rate to GLA: no apparent response
[2]; 20 µg/ml of medium added every second day
  growth suppressive effect on the cancer cells in culture (summary): complete growth suppressive effect
[2]; 20 µg/ml of medium added every second day, 500, 1,000 and 2,000 cell density cultures
  colonies in supplemented cultures: completely devoid of any colonies
BL6 mouse melanoma cells [3]; read-out: reduction in methionine uptake
  inhibition at 10 µg/mL: 58.9%
BL6 mouse melanoma cells [3]; read-out: reduction in thymidine uptake
  inhibition at 10 µg/mL: 59.1%
Human hepatoma cells; 24 h, day 1, versus control flasks (negative = more cells than control)
  inhibition at 20 µg/mL: -44%
Human hepatoma cells; 48 h, day 2, versus control flasks
  inhibition at 20 µg/mL: 66%
Human hepatoma cells; 72 h, day 3, versus control flasks
  inhibition at 20 µg/mL: 78%
Human hepatoma cells; 96 h, day 4 Run 1, versus control flasks
  inhibition at 20 µg/mL: 87%
Human hepatoma cells; 96 h, day 4 Run 2, versus control flasks
  inhibition at 20 µg/mL: 78%
Human hepatoma cells; day 1
  GLA supplemented cell number (x10^4) Mean: 8,12 x10^4
Human hepatoma cells; day 2
  GLA supplemented cell number (x10^4) Mean: 3,79 x10^4
Human hepatoma cells; day 3
  GLA supplemented cell number (x10^4) Mean: 3,35 x10^4
Human hepatoma cells; day 4 Run 1
  GLA supplemented cell number (x10^4) Mean: 2,96 x10^4
Human hepatoma cells; day 4 Run 2
  GLA supplemented cell number (x10^4) Mean: 7,25 x10^4
Human hepatoma cells; single dose of GLA 20 µg/ml on day 1, after four days
  difference between growth rates of GLA supplemented and control cells: no significant difference
Human hepatoma cells; single dose of GLA 20 µg/ml on day 1, counted after four days, n = 8, spread printed ± 4.85
  cell count: 19.81 x 104
[4]; day 2
  Cell count (x 10^6) + GLA Mean: 0,19 x 10^6
[4]; day 3
  Cell count (x 10^6) + GLA Mean: 0,31 x 10^6
[4]; day 4
  Cell count (x 10^6) + GLA Mean: 0,48 x 10^6
[4]; MG63 cells, daily GLA supplementation, over seven days, versus untreated MG63 cells, 10080 min
  growth suppressive effect: 76%
[5]; day 2
  Cell count (x 10^6) + GLA Mean: 0,14 x 10^6
[5]; day 3
  Cell count (x 10^6) + GLA Mean: 0,22 x 10^6
[5]; day 4
  Cell count (x 10^6) + GLA Mean: 0,31 x 10^6
[5]; day 5
  Cell count (x 10^6) + GLA Mean: 0,68 x 10^6
[5]; day 6
  Cell count (x 10^6) + GLA Mean: 0,63 x 10^6
[5]; day 7
  Cell count (x 10^6) + GLA Mean: 1,82 x 10^6
[5]; day 8
  Cell count (x 10^6) + GLA Mean: 2.04 x 10^6
[5]; oesophageal carcinoma cells, end of the eight day period, 11520 min
  growth suppressive effect: 69%
[6]; MDBK cells, end of the seven day period
  mean number of GLA supplemented cells compared with unsupplemented cells: exceed
[6]; day 2
  Cell count (x 10^6) + GLA Mean: 0,43 x 10^6
[6]; day 3
  Cell count (x 10^6) + GLA Mean: 0,70 x 10^6
[6]; day 6
  Cell count (x 10^6) + GLA Mean: 1,53 x 10^6
[6]; day 7
  Cell count (x 10^6) + GLA Mean: 1,81 x 10^6
BL6 mouse melanoma cells [7]
  growth and proliferation: completely suppressed
BL6 mouse melanoma cells [7]; 500, 1,000 or 2,000 cells seeded per flask
  colonies observed: not a single colony
